≈ marks a conversion by molar mass, not a printed value.
Assays:
[1] = biological target: T1, 17-beta-hydroxysteroid dehydrogenase type 1 (Homo sapiens) (UniProt P14061); conditions: 10 nM
T1 sequence (whole entry): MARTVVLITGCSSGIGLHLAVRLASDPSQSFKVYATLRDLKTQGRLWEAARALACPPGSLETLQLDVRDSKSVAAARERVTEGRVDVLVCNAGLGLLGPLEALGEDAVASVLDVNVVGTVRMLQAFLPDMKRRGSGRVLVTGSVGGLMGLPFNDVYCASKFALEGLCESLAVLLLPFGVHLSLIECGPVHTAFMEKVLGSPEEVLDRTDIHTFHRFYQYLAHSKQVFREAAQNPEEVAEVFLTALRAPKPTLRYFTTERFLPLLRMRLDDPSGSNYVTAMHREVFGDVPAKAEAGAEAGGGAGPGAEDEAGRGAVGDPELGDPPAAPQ
Description: Inhibition of human placental cytosolic fraction 17beta-HSD1 at 10 nM using [3H]-E1 as substrate in presence of NAD+ by radio-HPLC analysis relative to control

[2] = biological target: T2, 17-beta-hydroxysteroid dehydrogenase type 2 (Homo sapiens) (UniProt P37059); assay: Inhibition of human placental microsomal fraction 17beta-HSD2 at 10 nM using [3H]-E2 as substrate in presence of NAD+ by radio-HPLC analysis relative to control; assay type: subcellular; conditions: Placenta
T2 sequence (whole entry): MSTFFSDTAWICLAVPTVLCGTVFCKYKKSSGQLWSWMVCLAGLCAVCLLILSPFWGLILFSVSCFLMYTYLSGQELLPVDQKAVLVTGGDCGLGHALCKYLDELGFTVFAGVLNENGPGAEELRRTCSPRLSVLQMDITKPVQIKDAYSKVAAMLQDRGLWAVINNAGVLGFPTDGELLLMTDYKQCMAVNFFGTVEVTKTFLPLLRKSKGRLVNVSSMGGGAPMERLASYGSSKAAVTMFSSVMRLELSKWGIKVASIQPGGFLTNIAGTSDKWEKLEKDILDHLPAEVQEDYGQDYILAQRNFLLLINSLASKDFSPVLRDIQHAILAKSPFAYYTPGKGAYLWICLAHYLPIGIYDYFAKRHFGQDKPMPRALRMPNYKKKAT

[3] = Half life in human liver S9 fraction at 1 uM in presence of NADPH; assay type: ADME, subcellular
[4] = Aqueous solubility of the compound in phosphate-buffered saline at pH 7.2 after 1 to 24 hrs; assay type: physicochemical
[5] = Selectivity index, ratio of IC50 for mouse liver homogenate 17beta-HSD2 to IC50 for human placental cytosolic fraction 17beta-HSD1
[6] = biological target: T3, Steryl-sulfatase (Homo sapiens) (UniProt P08842); assay: Inhibition of human steroid sulfatase expressed in T47D cells using [3H]-E1S as substrate by radio-HPLC analysis relative to control; assay type: cell-based; conditions: concentration not given here
T3 sequence (whole entry): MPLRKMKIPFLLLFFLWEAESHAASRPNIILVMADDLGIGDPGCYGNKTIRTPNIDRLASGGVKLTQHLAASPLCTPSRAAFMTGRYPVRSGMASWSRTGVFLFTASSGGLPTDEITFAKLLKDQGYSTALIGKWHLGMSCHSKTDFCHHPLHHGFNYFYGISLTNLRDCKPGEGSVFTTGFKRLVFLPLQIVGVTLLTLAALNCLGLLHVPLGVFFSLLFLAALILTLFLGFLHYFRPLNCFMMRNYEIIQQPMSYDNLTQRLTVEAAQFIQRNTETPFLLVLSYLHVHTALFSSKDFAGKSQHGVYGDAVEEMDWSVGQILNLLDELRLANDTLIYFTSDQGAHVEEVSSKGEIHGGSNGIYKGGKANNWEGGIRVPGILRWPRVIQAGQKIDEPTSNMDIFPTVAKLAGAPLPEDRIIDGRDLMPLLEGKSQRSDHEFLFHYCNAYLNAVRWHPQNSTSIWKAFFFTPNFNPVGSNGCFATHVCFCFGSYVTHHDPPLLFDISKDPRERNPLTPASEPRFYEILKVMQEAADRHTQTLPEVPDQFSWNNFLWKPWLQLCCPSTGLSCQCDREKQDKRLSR

[7] = biological target: T4, 17-beta-hydroxysteroid dehydrogenase type 2 (Homo sapiens, UniProt P37059); assay: Inhibition of human placental microsomal fraction 17beta-HSD2 using [3H]-E2 as substrate in presence of NAD+ by radio-HPLC analysis; assay type: subcellular, Placenta
T4 sequence (P37059 whole entry): T2 sequence (whole entry)

[8] = biological target: T5, 17-beta-hydroxysteroid dehydrogenase type 1 (Homo sapiens, UniProt P14061); assay: Inhibition of human placental cytosolic fraction 17beta-HSD1 using [3H]-E1 as substrate in presence of […] by radio-HPLC analysis
T5 sequence (P14061 whole entry): T1 sequence (whole entry)

[9] = biological target: T6, Estradiol 17-beta-dehydrogenase 2 (Mus musculus, UniProt P51658); assay: Inhibition of mouse liver homogenate 17beta-HSD2 using [3H]-E2 as substrate in presence of NAD+ by radio-HPLC analysis; assay type: tissue-based
T6 sequence (P51658 whole entry): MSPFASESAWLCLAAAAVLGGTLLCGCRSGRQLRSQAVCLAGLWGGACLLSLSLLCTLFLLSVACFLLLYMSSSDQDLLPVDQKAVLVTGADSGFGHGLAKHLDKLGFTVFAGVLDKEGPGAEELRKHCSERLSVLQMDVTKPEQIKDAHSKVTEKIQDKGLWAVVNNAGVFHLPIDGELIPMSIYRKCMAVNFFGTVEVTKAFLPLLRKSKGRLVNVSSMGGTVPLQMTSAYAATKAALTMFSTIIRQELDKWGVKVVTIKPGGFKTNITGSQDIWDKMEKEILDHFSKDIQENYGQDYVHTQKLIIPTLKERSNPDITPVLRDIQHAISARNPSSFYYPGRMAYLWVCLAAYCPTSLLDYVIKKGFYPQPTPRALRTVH

[10] = biological target: T7, Estradiol 17-beta-dehydrogenase 2 (Mus musculus) (UniProt P51658); assay: Inhibition of mouse liver homogenate 17beta-HSD2 at 1uM using [3H]-E2 as substrate in presence of NAD+ by radio-HPLC analysis relative to control; assay type: tissue-based
T7 sequence (whole entry): T6 sequence (P51658 whole entry)

[11] = Selectivity index, ratio of cytotoxicity against HEK293 cells to IC50 for human placental cytosolic fraction 17beta-HSD1
HEK293 = assay: Cytotoxicity against human HEK293 cells assessed as cell viability at 6.3 uM after 66 hrs by MTT assay; assay type: cell-based; conditions: hek293, 66 h

SMILES	half-life at 1 µM [3] [min]	solubility [4] [µM]	IC50 [7] [µM]	IC50 [8] [µM]	other results
NS(=O)(=O)c1ccc(-c2ccc(C(=O)c3c(F)ccc(O)c3F)s2)cc1	–	–	–	–	inhibition [1]: 18%; inhibition [2]: 54%
NS(=O)(=O)c1cccc(-c2ccc(C(=O)c3c(F)ccc(O)c3F)s2)c1	–	–	–	–	inhibition [1]: 34%; inhibition [2]: 26%
Cc1cc(-c2ccc(C(=O)c3cc(F)c(F)c(O)c3C)s2)cc(C)c1O	28	15 to 25 (≈ 5.62 to 9.36 µg/mL)	–	–	–
NS(=O)(=O)Oc1ccc(-c2ccc(C(=O)c3cc(F)c(F)c(O)c3F)s2)cc1	55	> 200	0.006	0.035	Ratio IC50 [5]: < 10; inhibition [6]: 60%; IC50 [9]: 0.08 µM
O=C(c1ccc(-c2cccc(NS(=O)(=O)c3ccccc3OC(F)(F)F)c2)s1)c1cc(F)c(F)c(O)c1F	–	25 to 50 (≈ 14.3 to 28.7 µg/mL)	–	–	–
Cc1cc(-c2ccc(C(=O)c3cccc(O)c3C)s2)cc(C)c1O	25	–	–	–	–
O=C(c1ccc(-c2cncc(F)c2)s1)c1cc(F)c(F)c(O)c1F	–	> 200	–	–	inhibition [10]: 24%
CS(=O)(=O)c1cccc(-c2ccc(C(=O)c3cc(F)c(F)c(O)c3F)s2)c1	–	> 200	0.018	0.008	inhibition [10]: 60%
CS(=O)(=O)n1cc(-c2ccc(C(=O)c3c(F)ccc(O)c3F)s2)cn1	–	–	0.075	0.08	–
Cc1cc(-c2ccc(C(=O)c3cc(F)cc(O)c3C)s2)cc(C)c1O	22	100 to 200 (≈ 35.6 to 71.3 µg/mL)	0.076	0.006	Selectivity Index [11]: 1050; Activity (HEK293): Non-Toxic

Further lines, with some results ahead:

half-life at 1 µM [3] [min]	solubility [4] [µM]	IC50 [7] [µM]	IC50 [8] [µM]	SMILES	other results
< 5	–	0.015	0.0005	COc1c(Cl)cc(-c2ccc(C(=O)c3c(Cl)ccc(O)c3F)s2)cc1Cl	–
–	–	0.0095	0.015	COc1c(Cl)cc(-c2ccc(C(=O)c3c(F)ccc(O)c3Cl)s2)cc1Cl	–
–	–	0.018	0.003	O=C(c1ccc(-c2cc(Cl)c(O)c(Cl)c2)s1)c1c(Cl)ccc(O)c1F	–
< 5	15 to 25 (≈ 5.41 to 9.01 µg/mL)	0.0073	–	Cc1cc(-c2ccc(C(=O)c3c(F)ccc(O)c3F)s2)cc(C)c1O	–
< 5	< 5	–	–	COc1c(Cl)cc(-c2ccc(C(=O)c3c(F)ccc(O)c3F)s2)cc1Cl	–
